Data set [1] deals with T1, 3-phosphoglycerate kinase (Sus scrofa, UniProt Q7SIB7).
T1 sequence (Q7SIB7 1-417): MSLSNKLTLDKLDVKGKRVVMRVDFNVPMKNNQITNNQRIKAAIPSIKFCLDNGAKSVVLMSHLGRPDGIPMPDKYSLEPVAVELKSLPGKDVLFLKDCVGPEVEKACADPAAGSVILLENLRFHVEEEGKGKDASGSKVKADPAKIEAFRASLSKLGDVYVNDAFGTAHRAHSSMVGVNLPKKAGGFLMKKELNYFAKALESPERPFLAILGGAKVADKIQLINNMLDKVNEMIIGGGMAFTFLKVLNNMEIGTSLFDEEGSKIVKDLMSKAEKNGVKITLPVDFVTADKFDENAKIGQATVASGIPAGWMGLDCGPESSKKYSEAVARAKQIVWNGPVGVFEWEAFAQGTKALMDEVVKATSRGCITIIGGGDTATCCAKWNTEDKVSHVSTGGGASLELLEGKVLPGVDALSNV
The following applies: Tompa 1986; Vas 1990; Szilagyi 1998; cited from earlier work.

For data set [2], the target named is T2, propionyl-CoA transferase from Ralstonia eutropha (PCTRe), wild type, SEQ ID NO: 12 (Cupriavidus necator, UniProt Q0K874).
T2 sequence (Q0K874 1-542): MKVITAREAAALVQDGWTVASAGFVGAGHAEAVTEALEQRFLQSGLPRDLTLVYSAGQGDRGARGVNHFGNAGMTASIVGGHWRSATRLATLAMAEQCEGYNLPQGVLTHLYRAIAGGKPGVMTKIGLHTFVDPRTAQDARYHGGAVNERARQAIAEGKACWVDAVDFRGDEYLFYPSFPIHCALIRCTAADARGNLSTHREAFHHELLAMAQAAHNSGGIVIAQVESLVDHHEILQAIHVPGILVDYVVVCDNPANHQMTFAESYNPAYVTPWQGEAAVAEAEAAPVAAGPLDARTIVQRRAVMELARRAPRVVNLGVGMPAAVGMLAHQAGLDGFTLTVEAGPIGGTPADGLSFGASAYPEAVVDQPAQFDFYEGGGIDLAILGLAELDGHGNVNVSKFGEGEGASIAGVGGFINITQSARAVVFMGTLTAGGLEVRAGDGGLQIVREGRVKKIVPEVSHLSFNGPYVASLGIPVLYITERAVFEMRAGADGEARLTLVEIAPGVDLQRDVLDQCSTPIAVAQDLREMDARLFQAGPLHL
Particulars: 37° C., pH 7.5, 2 mM acetyl-CoA, 10-800 mM glycolate; n=3.

The target of data set [3] is T3, malonyl-CoA reductase from Chloroflexus aurantiacus (MCRCa), SEQ ID NO: 8 (Chloroflexus aurantiacus, UniProt Q6QQP7).
T3 sequence (Q6QQP7 1-1220): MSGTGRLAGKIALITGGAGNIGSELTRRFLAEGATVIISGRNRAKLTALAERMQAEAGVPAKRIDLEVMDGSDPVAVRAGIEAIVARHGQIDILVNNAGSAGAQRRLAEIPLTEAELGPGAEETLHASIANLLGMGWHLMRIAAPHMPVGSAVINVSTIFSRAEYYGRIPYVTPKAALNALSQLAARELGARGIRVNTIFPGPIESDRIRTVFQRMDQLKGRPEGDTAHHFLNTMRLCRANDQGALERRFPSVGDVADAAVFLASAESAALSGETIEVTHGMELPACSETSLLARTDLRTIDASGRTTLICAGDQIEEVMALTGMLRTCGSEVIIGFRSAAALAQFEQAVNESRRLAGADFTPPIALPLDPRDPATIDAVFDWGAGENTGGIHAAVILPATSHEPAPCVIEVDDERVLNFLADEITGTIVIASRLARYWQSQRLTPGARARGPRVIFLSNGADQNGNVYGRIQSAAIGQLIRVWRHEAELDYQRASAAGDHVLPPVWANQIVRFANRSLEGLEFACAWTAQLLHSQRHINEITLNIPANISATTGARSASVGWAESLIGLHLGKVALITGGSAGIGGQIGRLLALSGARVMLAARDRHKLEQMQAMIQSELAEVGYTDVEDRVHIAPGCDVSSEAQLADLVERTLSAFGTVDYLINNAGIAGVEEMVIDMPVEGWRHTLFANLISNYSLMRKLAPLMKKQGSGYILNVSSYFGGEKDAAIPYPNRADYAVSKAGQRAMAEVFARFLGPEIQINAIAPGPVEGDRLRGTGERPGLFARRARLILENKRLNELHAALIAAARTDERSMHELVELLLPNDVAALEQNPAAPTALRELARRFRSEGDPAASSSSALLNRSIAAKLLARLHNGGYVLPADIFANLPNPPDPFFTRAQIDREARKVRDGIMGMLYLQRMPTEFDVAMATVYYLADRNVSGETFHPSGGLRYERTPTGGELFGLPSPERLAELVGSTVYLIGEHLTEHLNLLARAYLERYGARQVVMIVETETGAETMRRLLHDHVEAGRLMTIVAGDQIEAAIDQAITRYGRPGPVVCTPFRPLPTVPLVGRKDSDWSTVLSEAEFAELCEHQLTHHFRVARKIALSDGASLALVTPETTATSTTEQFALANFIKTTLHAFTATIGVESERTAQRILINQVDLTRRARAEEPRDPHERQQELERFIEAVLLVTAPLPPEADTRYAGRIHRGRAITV
Particulars: read-out: apparent Km value for malonyl-CoA; Hügler et al., 2002; cited from earlier work.

In another data set the test system is malonyl-CoA. Particulars: 0.3 mM substrate, 37° C., Kröger et al. 2011; cited from earlier work.
The subject of the next data set is tartronyl-CoA. The data set can be described thus: malonyl-CoA reductase spectrophotometric assay, NADPH oxidation at 365 nm, tartronyl-CoA into glycerate (reactions 4# and 5). The data set is classed as biochemical. Particulars: 0.25 mM tartronyl-CoA, 37° C. The procedure: The kinetics of the MCRCa enzyme for enzymatically converting the substrate tartonyl-CoA into glycerate (via reactions 4# and 5 both catalyzed by MCRCa) were determined spectrophotometrically at 365 nm following the oxidation of NADPH. Per molecule tartronyl-CoA, two molecules of NADPH are oxidized by MCRCa (a first in reaction 4# and a second in reaction 5) The measurements were carried out at 37° C. in a total reaction volume of 200 μL containing 100 mM MOPS buffer (with 5 mM MgCl2, pH 7.5) with an initial NADPH concentration of 0.4 mM NADPH and 23 μg MCRCa.
An alternative enzyme for catalyzing the conversion of tartonyl-CoA into glycerate (via reactions 4# and 5) is the MCR from Erythrobacter sp. NAP1 (MCRE). It was tested for its activity with malonyl-CoA and for tartronyl-CoA with the assay described above for MCRCa.

For the next data set, the system named is glycolyl-CoA. The data set can be described thus: MCRCa coupled assay: glycolyl-CoA carboxylation by PCC coupled to two step reduction to glycerate by MCRCa (reactions 3#, 4#, 5), HPLC-hrMS and NADPH absorption. Particulars: tartronyl-CoA produced by PCCMe_D407I_Y143H. It is filed as biochemical. The method, then: In addition to the above mentioned assays also another assay was performed in which the formation of tartronyl-CoA from glycolyl-CoA (reaction 3#) by the PCCMe_D407I_Y143H enzyme was directly coupled to its subsequent two step reduction via tartronate-semialdehyde (reaction 4#) to glycerate (reaction 5) by use of the purified MCRCa (Kröger et al., 2011, loc. cit.). The reaction mixture (300 μL) contained 200 mM NH4HCO3 buffer, pH 7.7, 5 mM MgCl2, 1 mM ATP, 0.4 mM NADPH, 43 μg PCCMe_D407I_Y143H, and 184 μg of MCRCa.
To determine whether MCRCa was able to catalyze the two step reduction of tartonyl-CoA to glycerate (via tartronic semialdehyde), samples of the reaction mixture were withdrawn after all of the NADPH was consumed. The samples were stopped with formic acid (5% final concentration). The acidified samples were centrifuged at 4° C. and 17 000×g and the supernatants were analyzed by HPLC-hrMS.
The formation of glycerate was analyzed using an Agilent 6550 iFunnel Q-TOF LC-MS system equipped with an electrospray ionization source set to negative ionization mode. […]
LC-MS data were analyzed using MassHunter Qualitative Analysis software (Agilent). […] In such assays the tartronate semialdehyde can be covalently derivatized with phenylhydrazine to a phenylhydrazone, which can be detected by its absorbance at 324 nm and confirmed by its corresponding mass spectrum. […]

`O=C(O)COP(=O)(O)O` [2-PG, 2-phosphoglycolate]: the “type of inhibition of 3-phosphoglycerate kinase” value in data set [1] was “competitive inhibitor”. As to `O=C(O)CO` [glycolate], the vmax in data set [2] is given as 1.3 ± 0.07 U mg^−1. As a reminder, the Km is the concentration of substrate that gives half-maximal velocity. In the case of `CC(C)(COP(=O)(O)OP(=O)(O)OC[C@H]1O[C@@H](n2cnc3c(N)ncnc32)[C@H](O)[C@@H]1OP(=O)(O)O)[C@@H](O)C(=O)NCCC(=O)NCCSC(=O)CC(=O)O` [malonyl-CoA], the Km in data set [3] is 30 µM.

B1: MCRCa: malonyl-CoA reductase of Chloroflexus aurantiacus, NCBI accession no. AAS20429.1, SEQ ID NO: 8 (protein, listed as Chloroflexus aurantiacus)
chain: T3 sequence (Q6QQP7 1-1220)
modifications: [CDS]1..3663 from SEQ ID NO 7
Turning to B1, in the data set on malonyl-CoA, the “specific activity with malonyl-CoA” value is “approximately 7 U mg^−1”. Besides, the “specific activity with tartronyl-CoA” value with tartronyl-CoA was found to be 0.6 U mg^−1. For the same molecule, the “reduction of tartronyl-CoA to glycerate (HPLC-hrMS)” value with glycolyl-CoA is on record as “able to reduce the tartronyl-CoA, produced by PCCMe_D407I_Y143H, to glycerate”.

(Values after patent US10781456B2, “Carbon-neutral and carbon-positive photorespiration bypass routes supporting higher photosynthetic rate and yield” (Max-Planck-Gesellschaft zur Förderung der Wissenschaften …, priority 2015, dated 2020).)
